Assay results reported in ChEMBL document CHEMBL1201862, “PubChem BioAssay data set” (2004).
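Growth conditions: 96-well plates. Treatment: test compound, 48 hours, 5 concentrations. Analysis: linear interpolation between bracketing concentrations; unreached endpoints set to highest concentration. Here, GI50 denotes the concentration required for 50% inhibition of growth.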 Active and inactive are the calls of the source. No stated cut-off is given here; in the data, active = GI50 up to about 1.1 µM and inactive = higher.

Key:
Assay in all cases: growth of human tumour cells (NCI), 48 h
[1] = test system: ACHN
[2] = test system: CAKI-1
[3] = test system: HCC 2998
[4] = test system: HCT-15
[5] = test system: HOP-62
[6] = test system: IGROV-1
[7] = test system: K562
[8] = test system: LOX IMVI
[9] = test system: MDA-MB-231
[10] = test system: Malme-3M
[11] = test system: NCI-H460
[12] = test system: NCI/ADR-RES
[13] = test system: PC-3
[14] = test system: RPMI-8226
[15] = test system: SK-MEL-2
[16] = test system: SK-MEL-5
[17] = test system: SN12C
[18] = test system: SW-620
[19] = test system: U-251
[20] = test system: UACC-257

Measured: GI50

O=P1(c2ccccc2)C(c2ccccc2)=CC=C1c1ccccc1
16 µM: [4]
inactive: [1] 28 µM | [2] 50.7 µM | [3] 25.2 µM | [5] 44.4 µM | [6] 39.8 µM | [7] 3.95 µM | [8] 10.4 µM | [9] 36.7 µM | [10] 27.3 µM | [11] 11.6 µM | [12] 30.7 µM | [13] 15.3 µM | [14] 3.31 µM | [15] 11.3 µM | [16] 6.24 µM | [17] 39.2 µM | [18] 26.1 µM | [19] 13.3 µM | [20] 22.5 µM

Cc1cccc(-c2cc(O)c3c(C)cc(C)nc3n2)c1
1.32 µM: [4]
active: [7] 0.585 µM | [16] 1.05 µM | [18] 0.792 µM
inactive: [1] 8.3 µM | [2] 5.66 µM | [3] 4.9 µM | [5] 4.52 µM | [6] 4.06 µM | [8] 4.82 µM | [9] 5.7 µM | [10] 2.31 µM | [11] 2.95 µM | [12] 1.65 µM | [13] 2.43 µM | [14] 4.07 µM | [15] 2.73 µM | [17] 8.91 µM | [19] 2.79 µM | [20] 7.87 µM

O=[N+]([O-])c1ccc2nc3c(nc2c1)-c1c2ccccc2cc2cccc-3c12
6.28 µM: [4]
inactive: [1] 2.74 µM | [2] 9.77 µM | [3] 33.3 µM | [5] 18.6 µM | [6] 4.43 µM | [7] 6.1 µM | [8] 4.8 µM | [9] 18.7 µM | [10] 19 µM | [11] 19.7 µM | [12] 3.97 µM | [13] 9.55 µM | [14] 17.7 µM | [15] 27.2 µM | [16] 31.8 µM | [17] 10.7 µM | [18] 4.83 µM | [19] 5.9 µM | [20] 18.8 µM

S=c1oc(CCCCCCCCc2nn(CNc3ccc(Cl)cc3)c(=S)o2)nn1CNc1ccc(Cl)cc1
inactive: [1] 72.3 µM | [2] 33.8 µM | [3] > 100 µM | [5] 7.52 µM | [6] > 100 µM | [7] 6.89 µM | [9] > 100 µM | [10] > 100 µM | [11] > 100 µM | [12] > 100 µM | [13] 29.3 µM | [14] 6.78 µM | [15] > 100 µM | [16] 3.27 µM | [17] > 100 µM | [18] > 100 µM | [19] > 100 µM | [20] 40 µM
> 100 µM: [4]

Cc1sc2nc3n(c(=O)c2c1C)N=C(c1ccc(Cl)cc1)CS3
inactive: [1] > 100 µM | [2] > 100 µM | [3] > 100 µM | [5] 66.1 µM | [7] > 100 µM | [8] > 100 µM | [9] > 100 µM | [10] > 100 µM | [11] > 100 µM | [12] > 100 µM | [13] > 100 µM | [14] > 100 µM | [16] > 100 µM | [17] > 100 µM | [18] > 100 µM | [19] > 100 µM | [20] > 100 µM
> 100 µM: [4]

Oc1ccccc1/C=N/N1C(=S)N(c2ccccc2)C(=N\c2ccccc2)/C1=N/c1ccccc1
35 µM: [4]
inactive: [1] 2.41 µM | [2] 12.4 µM | [3] 23.1 µM | [5] 9.35 µM | [6] 14 µM | [7] 28.6 µM | [8] 13.7 µM | [9] 10 µM | [10] 22.4 µM | [11] 12.4 µM | [12] 13.6 µM | [13] 16.9 µM | [14] > 35.6 µM | [15] 17.7 µM | [16] 18.2 µM | [17] 12.4 µM | [18] 22.3 µM | [19] 2.79 µM | [20] 25.1 µM

CC1=CC(=O)CC(C)(C)C1(O)/C=C/C(C)=C/C(=O)O (centres undefined)
inactive: [1] > 100 µM | [2] > 100 µM | [3] > 100 µM | [5] > 100 µM | [6] > 100 µM | [7] > 100 µM | [8] > 100 µM | [9] > 100 µM | [10] > 100 µM | [11] > 100 µM | [12] > 100 µM | [13] > 100 µM | [14] > 100 µM | [15] > 100 µM | [16] > 100 µM | [17] > 100 µM | [18] > 100 µM | [19] > 100 µM | [20] > 100 µM
> 100 µM: [4]

O=C1CSC(c2ccc([N+](=O)[O-])cc2)N1c1ccc(-c2ccc(-n3c(-c4ccccc4)nc4ccccc4c3=O)cc2)cc1 (centres undefined)
33.7 µM: [4]
inactive: [1] 56.5 µM | [2] > 100 µM | [3] 35.7 µM | [5] > 100 µM | [7] 34.4 µM | [8] 52.5 µM | [9] 49.8 µM | [10] 58.1 µM | [11] 38.4 µM | [12] 43.9 µM | [13] 36.4 µM | [14] 32.5 µM | [15] 44.2 µM | [16] 17.3 µM | [17] > 100 µM | [18] > 100 µM | [19] 83 µM | [20] > 100 µM

NC(=O)NCCCC(NC(=O)OCCCCn1ccc(=O)[nH]c1=O)C(=O)O (centres undefined)
> 100 µM: [4]
inactive: [1] > 100 µM | [2] > 100 µM | [3] > 100 µM | [5] > 100 µM | [6] > 100 µM | [7] > 100 µM | [8] > 100 µM | [9] > 100 µM | [11] > 100 µM | [12] > 100 µM | [13] > 100 µM | [14] > 100 µM | [15] > 100 µM | [17] > 100 µM | [18] > 100 µM | [19] > 100 µM | [20] > 100 µM

Nc1c(C(=O)c2ccc(Cl)cc2)[nH]c(NCc2ccccc2)c1C(=S)Nc1ccccc1
inactive: [1] 2.28 µM | [2] 5.2 µM | [5] 3.67 µM | [6] 2.37 µM | [7] 2.08 µM | [8] 1.8 µM | [9] 1.9 µM | [11] 1.77 µM | [12] 7.83 µM | [13] 5.31 µM | [14] 1.79 µM | [15] 1.91 µM | [17] 4.89 µM | [18] 1.88 µM | [19] 1.72 µM | [20] 1.67 µM
active: [3] 0.372 µM
1.79 µM: [4]

CN(C)CCCN1c2ccc([N+](=O)[O-])cc2CCc2cccc([N+](=O)[O-])c21
inactive: [1] 17.6 µM | [3] 13.5 µM | [5] 13.8 µM | [6] 14.9 µM | [7] 14.8 µM | [8] 16.5 µM | [9] 13.1 µM | [10] 14.1 µM | [11] 15.5 µM | [12] 13.3 µM | [13] 16.7 µM | [14] 26.1 µM | [15] 18.7 µM | [16] 15.2 µM | [17] 15.1 µM | [18] 16.1 µM | [19] 15.3 µM | [20] 14.3 µM
15.5 µM: [4]

COc1cc(OC)c2c(=O)c(OC)c(-c3ccc4c(c3)OCO4)oc2c1OC
inactive: [1] 83.8 µM | [2] > 100 µM | [3] > 100 µM | [5] 91.8 µM | [6] > 100 µM | [7] > 100 µM | [8] 41.2 µM | [9] 91.4 µM | [10] > 100 µM | [11] > 100 µM | [12] > 100 µM | [13] > 100 µM | [15] > 100 µM | [16] 23.2 µM | [17] > 100 µM | [18] > 100 µM | [19] > 100 µM | [20] > 100 µM
> 100 µM: [4]

CC(C)N/C(=N\C#N)NS(=O)(=O)c1cnccc1NC1CCCCCCC1
inactive: [1] > 100 µM | [2] > 100 µM | [3] > 100 µM | [5] > 100 µM | [6] > 100 µM | [7] > 100 µM | [9] > 100 µM | [10] > 100 µM | [12] > 100 µM | [13] > 100 µM | [14] 39.8 µM | [15] > 100 µM | [16] > 100 µM | [17] > 100 µM | [18] > 100 µM | [19] > 100 µM | [20] > 100 µM
> 100 µM: [4]

CCOC(=O)C(C(=O)COC(C)(C)C)[C@@H]1C=C[C@H](OC(C)=O)C1 (some centres undefined)
inactive: [1] > 100 µM | [2] > 100 µM | [3] > 100 µM | [5] > 100 µM | [7] > 100 µM | [9] > 100 µM | [10] > 100 µM | [11] > 100 µM | [12] > 100 µM | [13] > 100 µM | [14] > 100 µM | [15] > 100 µM | [17] > 100 µM | [18] > 100 µM | [19] > 100 µM | [20] > 100 µM
> 100 µM: [4]

N=C(N)n1nc2c(c1O)CCC2
> 100 µM: [4]
inactive: [1] > 100 µM | [2] > 100 µM | [3] > 100 µM | [5] > 100 µM | [6] > 100 µM | [7] > 100 µM | [8] > 100 µM | [9] > 100 µM | [10] > 100 µM | [11] > 100 µM | [12] > 100 µM | [13] > 100 µM | [15] > 100 µM | [16] > 100 µM | [17] > 100 µM | [18] > 100 µM | [19] > 100 µM | [20] > 100 µM
